According to article PMC8874959 (Viruses, 2022):
In brackets after ≈: the same amount, converted by molar mass. Entries after “also recorded” stand apart in the source; their conditions may differ. Where two headings read alike, the source gives them in different places.

How the values were obtained:
[1] = cited from earlier work; for Plasma protein binding: Table S3, ref DrugBank, PubChem, Warhurst, et al JAC 2003, Schroeder and Gerber Toxicol. Rep. 2014
[2] = tested on: SARS-CoV-2; conditions: cited from earlier work
[3] = in vitro; type: cell-based; conditions: African green monkey
[4] = ref DrugBank; PubChem; Warhurst, et al JAC 2003; Schroeder and Gerber Toxicol. Rep. 2014; cited from earlier work
[5] = tested on: SARS-CoV-2; conditions: Vero-E6, cited from earlier work
[6] = tested on: tuberculosis; conditions: cited from earlier work
[7] = cited from earlier work; for Cmax: human plasma
[8] = tested on: SARS-CoV-2-infected monocytes; type: cell-based, human
[9] = tested on: SARS-CoV-2 Gamma strain; test: microbe, parasite or virus in culture; type: cell-based; conditions: Severe acute respiratory syndrome coronavirus 2; Calu-3, Gamma strain, MOI 0.1, 48 hpi
[10] = in vitro; type: cell-based; conditions: human
[11] = PBPK input, cited from earlier work
[12] = tested on: SARS-CoV-2; type: cell-based
[13] = tested on: SARS-CoV-2; type: cell-based; remark: listed apart in the source

For `CCN(CC)CCCC(C)Nc1ccnc2cc(Cl)ccc12` (stereo not drawn) [Chloroquine], the Plasma protein binding [1] is listed as 46-74%, the “Antiviral activity in SARS-CoV-2-infected Calu-3 cells” value [2] is listed as “inactive; also recorded: lacks antiviral activity” and the CC50 at 72 h ([3]; Vero E6, 72 h) is listed as 259 ± 5 µM.

For `CCN(CCO)CCCC(C)Nc1ccnc2cc(Cl)ccc12` (stereo not drawn) [Hydroxychloroquine, hydroxychloroquine], the Plasma protein binding [1] is listed as 50%, the “Antiviral activity in SARS-CoV-2-infected Calu-3 cells” value [2] is listed as “lacks antiviral activity” and the “Lipinski’s rule of five” value [4] is listed as “Yes”. For the same molecule, the LogP [4] was 4.12, the Physiological charge [4] was “+2” and the pKa1 [4] was less than 4.0. The pKa2 [4] was 8.3 and the pKa3 [4] was 9.7.

For `OC(c1cc(C(F)(F)F)nc2c(C(F)(F)F)cccc12)C1CCCCN1` (stereo not drawn) [Mefloquine], the EC90 ([5]; ref 8 (supplement)) is given as 3064.3 ng/mL (≈ 8.1 µM), the EC90 ([5]; ref 9 (supplement)) is given as 2455.2 ng/mL (≈ 6.49 µM) and the EC90 ([5]; ref 10 (supplement)) is given as 2513.8 ng/mL (≈ 6.64 µM). For the same molecule, the Minimal inhibitory concentration [6] was 20 µM (≈ 7.57 µg/mL), the Half-life [7] was “measured in weeks” and the Cmax ([7]; equivalent) was 8.67 µM. For the same molecule, the Cmax [7] was 3279 ng/mL, the Protein binding ([1]; PBPK input, ref 12 (supplement)) was 98% and the Plasma protein binding [1] was greater than 98%. The “Virus-induced IL-6 levels” value [8] was “reduce the augmentation of these cytokines in a donor-dependent manner”, the “Virus-induced TNF-α levels” value [8] was “reduce the augmentation of these cytokines in a donor-dependent manner” and the “Virus-induced monocyte death (LDH)” value [8] was “reduce virus-induced monocyte death”. For the same molecule, the EC50 [9] was 1200 ± 400 nM, the EC90 [9] was 2700 ± 300 nM and the CC50 [10] was 19.9 ± 0.06 µM. The Half-life ([11]; ref 11 (supplement)) was 2-4 weeks, the Intrinsic clearance ([11]; ref 12 (supplement)) was 10.47 L/h and the “Log P” value ([11]; ref 12 (supplement)) was 3.87. The “pKa (diprotic base)” value ([11]; ref 12 (supplement)) was 8.7, the “Number of viral particles in the endosomes” value [12] was “reduced the number of viral particles in the endosomes” and the CC50 [3] was 9.2 ± 0.3 µM. For the same molecule, the LogP [4] was 3.90, the Water solubility [4] was 0.0380 mg/mL and the pKa1 [4] was “lower than 3.0”. For the same molecule, the pKa2 [4] was 9.46 and the pKa3 [4] was 13.79.

In the case of `CCC(CC)COC(=O)[C@H](C)N[P@](=O)(OC[C@H]1O[C@@](C#N)(c2ccc3c(N)ncnn23)[C@H](O)[C@@H]1O)Oc1ccccc1` [Remdesivir], the EC50 [9] is reported as 10 ± 8 nM, the EC90 [9] is reported as 200 ± 20 nM and the CC50 [10] is reported as 480 ± 20 µM. For the same molecule, the CC50 [3] was 512 ± 30 µM and the “Improvement of remdesivir's efficiency” value [13] was 200 fold.
